Measured values as given in US9765091B2, “Tetrahydropyrazolo [3,4-b] azepine derivatives and their use as allosteric modulators of metabotropic glutamate receptors” (Addex Pharma S.A., priority 2010, dated 2017).

Molecular target: T1, human mGluR4 (Homo sapiens, UniProt Q14833)
T1 construct: expressed in transfected cells
Assay: Fluorescent cell based Ca2+ mobilization assay (FLIPR) on HEK-293 cells expressing human mGluR4
Settings: positive allosteric modulation, HEK-293 cells expressing hmGluR4, stimulated by EC25 glutamate; mean of at least three independent experiments in duplicate; read-out: Ca^2+ Flux* (mean EC50)
Text: mGluR4 Assay on HEK-Expressing Human mGluR4
The compounds of the present invention are positive allosteric modulators of mGluR4 receptor. Their activity was examined on recombinant human mGluR4a receptors by detecting changes in intracellular Ca^2+ concentration, using the fluorescent Ca^2+-sensitive dye Fluo4-(AM) and a Fluorometric Imaging Plate Reader (FLIPR, Molecular Devices, Sunnyvale, Calif.).
The cDNA encoding the human metabotropic glutamate receptor (hmGluR4), (accession number NM_000841.1, NCBI Nucleotide database browser), was subcloned into an expression vector containing also the hygromycin resistance gene. In parallel, the cDNA encoding a G protein allowing redirection of the activation signal to intracellular calcium flux was subcloned into a different expression vector containing also the puromycin resistance gene. Transfection of both these vectors into HEK293 cells with PolyFect reagent (Qiagen) according to supplier's protocol, and hygromycin and puromycin treatment allowed selection of antibiotic resistant cells which had integrated stably one or more copies of the plasmids. Positive cellular clones expressing hmGluR4 were identified in a functional assay measuring changes in calcium fluxes in response to glutamate or selective known mGluR4 orthosteric agonists and antagonists. HEK-293 cells expressing hmGluR4 were maintained in media containing DMEM, dialyzed Fetal Calf Serum (10%), Glutamax™ (2 mM), Penicillin (100 units/mL), Streptomycin (100 μg/mL), Geneticin (100 μg/mL) and Hygromycin-B (40 μg/mL) and puromycin (1 μg/mL) at 37° C./5% CO2.
Human mGluR4 HEK-293 cells were plated out 24 hours prior to FLIPR^384 assay in black-walled, clear-bottomed, poly-L-ornithine-coated 384-well plates at a density of 25,000 cells/well in a glutamine/glutamate free DMEM medium containing foetal bovine serum (10%), penicillin (100 units/mL) and streptomycin (100 μg/mL) at 37° C./5% CO2.
On the day of the assay, the medium was aspirated and the cells were loaded with a 3 μM solution of Fluo4-AM (LuBioScience, Lucerne, Switzerland) in 0.03% pluronic acid. After 1 hour at 37° C./5% CO2, the non incorporated dye was removed by washing cell plate with the assay buffer and the cells were left in the dark at room temperature for […] before testing. All assays were performed in a pH 7.4 buffered-solution containing 20 mM HEPES, 143 mM NaCl, 6 mM KCl, 1 mM MgSO4, 1 mM CaCl2, 0.125 mM sulfapyrazone and 0.1% glucose.
After 10 s of basal fluorescence recording, various concentrations of the compounds of the invention were added to the cells. Changes in fluorescence levels were first monitored for 180 s in order to detect any agonist activity of the compounds. Then the cells were stimulated by an EC25 glutamate concentration for an additional 110 s in order to measure enhancing activities of the compounds of the invention. EC25 glutamate concentration is the concentration giving 25% of the maximal glutamate response.
The concentration-response curves of representative compounds of the present invention were generated using the Prism GraphPad software (Graph Pad Inc, San Diego, USA). The curves were fitted to a four-parameter logistic equation: (Y=Bottom+(Top−Bottom)/(1+10^((Log EC50−X)*Hill Slope) allowing the determination of EC50 values.
The Table 4 below represents the mean EC50 obtained from at least three independent experiments of selected molecules performed in duplicate.

T1 sequence (Q14833 33-912): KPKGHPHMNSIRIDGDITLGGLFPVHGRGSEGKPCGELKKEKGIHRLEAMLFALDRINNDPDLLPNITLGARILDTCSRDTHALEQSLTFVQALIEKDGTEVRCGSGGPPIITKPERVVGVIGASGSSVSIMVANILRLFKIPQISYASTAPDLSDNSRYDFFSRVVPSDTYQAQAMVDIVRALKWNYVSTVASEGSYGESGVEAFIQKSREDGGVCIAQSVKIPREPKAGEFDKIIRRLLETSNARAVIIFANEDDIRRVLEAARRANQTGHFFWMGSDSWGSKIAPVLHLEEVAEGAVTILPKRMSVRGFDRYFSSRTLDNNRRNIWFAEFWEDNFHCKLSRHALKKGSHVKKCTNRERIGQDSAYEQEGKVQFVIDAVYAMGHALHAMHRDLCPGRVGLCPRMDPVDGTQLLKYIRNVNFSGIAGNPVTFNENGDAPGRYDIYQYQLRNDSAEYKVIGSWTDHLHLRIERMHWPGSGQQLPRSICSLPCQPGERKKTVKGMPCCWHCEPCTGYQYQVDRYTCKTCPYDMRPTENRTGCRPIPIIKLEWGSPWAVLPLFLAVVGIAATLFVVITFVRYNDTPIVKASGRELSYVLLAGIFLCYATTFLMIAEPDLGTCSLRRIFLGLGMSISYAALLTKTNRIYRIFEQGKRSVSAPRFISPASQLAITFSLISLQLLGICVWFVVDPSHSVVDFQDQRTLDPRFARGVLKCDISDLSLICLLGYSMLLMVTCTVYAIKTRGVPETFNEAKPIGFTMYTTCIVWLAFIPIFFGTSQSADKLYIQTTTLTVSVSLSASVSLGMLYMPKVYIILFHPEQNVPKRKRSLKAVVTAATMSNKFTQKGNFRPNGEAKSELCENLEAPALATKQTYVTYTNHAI

Row | SMILES | EC50 [nM]
1 | CN1CCc2sc(Nc3ncc(F)cn3)nc2-c2c[nH]nc21 [Compound 1-2, N-(5-Fluoropyrimidin-2-yl)-6-methyl-4,5,6,8-tetrahydropyrazolo[3,4-b]thiazolo[4,5-d]azepin-2-amine] | 100 to 1000
2 | CCN1CCc2sc(Nc3nccc(C)n3)nc2-c2c[nH]nc21 [Compound 1-3, 6-Ethyl-N-(4-methylpyrimidin-2-yl)-4,5,6,8-tetrahydropyrazolo[3,4-b]thiazolo[4,5-d]azepin-2-amine] | < 100
3 | Fc1cnc(Nc2nc3c(s2)CCN(CC2CC2)c2n[nH]cc2-3)nc1 [Compound 1-4, 6-(Cyclopropylmethyl)-N-(5-fluoropyrimidin-2-yl)-4,5,6,8-tetrahydropyrazolo[3,4-b]thiazolo[4,5-d]azepin-2-amine] | < 100
4 | CC(C)N1CCc2sc(Nc3ncc(F)cn3)nc2-c2c[nH]nc21 [Compound 1-6, N-(5-Fluoropyrimidin-2-yl)-6-isopropyl-4,5,6,8-tetrahydropyrazolo[3,4-b]thiazolo[4,5-d]azepin-2-amine] | < 100
5 | COCCN1CCc2sc(Nc3nccc(C)n3)nc2-c2c[nH]nc21 [Compound 1-7, 6-(2-Methoxyethyl)-N-(4-methylpyrimidin-2-yl)-4,5,6,8-tetrahydropyrazolo[3,4-b]thiazolo[4,5-d]azepin-2-amine] | < 100
6 | Cc1nc(Nc2nc3c(s2)CCN(C)c2n[nH]cc2-3)ncc1F [Compound 1-9, N-(5-Fluoro-4-methylpyrimidin-2-yl)-6-methyl-4,5,6,8-tetrahydropyrazolo[3,4-b]thiazolo[4,5-d]azepin-2-amine] | 100 to 1000
7 | Cc1ccnc(Nc2nc3c(s2)CCN(CC2CCCO2)c2n[nH]cc2-3)n1 (stereo not drawn) [Compound 1-10, N-(4-Methylpyrimidin-2-yl)-6-((tetrahydrofuran-2-yl)methyl)-4,5,6,8-tetrahydropyrazolo[3,4-b]thiazolo[4,5-d]azepin-2-amine] | < 100
8 | COCCN1CCc2sc(Nc3ncc(F)cn3)nc2-c2c[nH]nc21 [Compound 1-12, N-(5-Fluoropyrimidin-2-yl)-6-(2-methoxyethyl)-4,5,6,8-tetrahydropyrazolo[3,4-b]thiazolo[4,5-d]azepin-2-amine] | < 100
9 | COCCN1CCc2sc(Nc3cccc(C)n3)nc2-c2c[nH]nc21 [Compound 1-13, 6-(2-Methoxyethyl)-N-(6-methylpyridin-2-yl)-4,5,6,8-tetrahydropyrazolo[3,4-b]thiazolo[4,5-d]azepin-2-amine] | < 100
10 | Cc1ccnc(Nc2nc3c(s2)CCN(Cc2ccn(C)n2)c2n[nH]cc2-3)n1 [Compound 1-16, 6-((1-Methyl-1H-pyrazol-3-yl)methyl)-N-(4-methylpyrimidin-2-yl)-4,5,6,8-tetrahydropyrazolo[3,4-b]thiazolo[4,5-d]azepin-2-amine] | < 100
11 | Cc1ccnc(Nc2nc3c(s2)CCN(CC(=O)N(C)C)c2n[nH]cc2-3)n1 [Compound 1-17, N,N-Dimethyl-2-(2-(4-methylpyrimidin-2-ylamino)-4,5-dihydropyrazolo[3,4-b]thiazolo[4,5-d]azepin-6(8H)-yl)acetamide] | 100 to 1000
12 | COCCN1CCc2sc(Nc3nccc(OC)n3)nc2-c2c[nH]nc21 [Compound 1-18, 6-(2-Methoxyethyl)-N-(4-methoxypyrimidin-2-yl)-4,5,6,8-tetrahydropyrazolo[3,4-b]thiazolo[4,5-d]azepin-2-amine] | < 100
13 | COCCN1CCc2sc(Nc3nsc(C)n3)nc2-c2c[nH]nc21 [Compound 1-19, 6-(2-Methoxyethyl)-N-(5-methyl-1,2,4-thiadiazol-3-yl)-4,5,6,8-tetrahydropyrazolo[3,4-b]thiazolo[4,5-d]azepin-2-amine] | < 100
14 | OCCN1CCc2sc(Nc3ncc(F)cn3)nc2-c2c[nH]nc21 [Compound 1-20, 2-(2-(5-Fluoropyrimidin-2-ylamino)-4,5-dihydropyrazolo[3,4-b]thiazolo[4,5-d]azepin-6(8H)-yl)ethanol] | 100 to 1000
15 | COCCN1CCc2sc(Nc3cccc(N)n3)nc2-c2c[nH]nc21 [Compound 1-21, N^2-(6-(2-Methoxyethyl)-4,5,6,8-tetrahydropyrazolo[3,4-b]thiazolo[4,5-d]azepin-2-yl) pyridine-2,6-diamine] | < 100
16 | Cc1cc(CN2CCc3sc(Nc4ncc(F)cn4)nc3-c3c[nH]nc32)no1 [Compound 1-22, N-(5-Fluoropyrimidin-2-yl)-6-((5-methylisoxazol-3-yl)methyl)-4,5,6,8-tetrahydropyrazolo[3,4-b]thiazolo[4,5-d]azepin-2-amine] | < 100
17 | Fc1cnc(Nc2nc3c(s2)CCN(Cc2ccccn2)c2n[nH]cc2-3)nc1 [Compound 1-26, N-(5-Fluoropyrimidin-2-yl)-6-(pyridin-2-ylmethyl)-4,5,6,8-tetrahydropyrazolo[3,4-b]thiazolo[4,5-d]azepin-2-amine] | < 100
18 | Fc1cnc(Nc2nc3c(s2)CCN(Cc2ccncc2)c2n[nH]cc2-3)nc1 [Compound 1-27, N-(5-Fluoropyrimidin-2-yl)-6-(pyridin-4-ylmethyl)-4,5,6,8-tetrahydropyrazolo[3,4-b]thiazolo[4,5-d]azepin-2-amine] | < 100
19 | CS(=O)(=O)CCN1CCc2sc(Nc3ncc(F)cn3)nc2-c2c[nH]nc21 [Compound 1-28, N-(5-Fluoropyrimidin-2-yl)-6-(2-(methylsulfonyl)ethyl)-4,5,6,8-tetrahydropyrazolo[3,4-b]thiazolo[4,5-d]azepin-2-amine] | < 100
20 | Fc1cnc(Nc2nc3c(s2)CCN(CCC(F)(F)F)c2n[nH]cc2-3)nc1 [Compound 1-29, N-(5-Fluoropyrimidin-2-yl)-6-(3,3,3-trifluoropropyl)-4,5,6,8-tetrahydropyrazolo[3,4-b]thiazolo[4,5-d]azepin-2-amine] | 100 to 1000
21 | Fc1cnc(Nc2nc3c(s2)CCN(CC(F)(F)F)c2[nH]ncc2-3)nc1 [Compound 1-30, N-(5-Fluoropyrimidin-2-yl)-6-(2,2,2-trifluoroethyl)-4,5,6,7-tetrahydropyrazolo[3,4-b]thiazolo[4,5-d]azepin-2-amine] | 100 to 1000
22 | Fc1cnc(Nc2nc3c(s2)CCN(C2CCOC2)c2n[nH]cc2-3)nc1 (stereo not drawn) [Compound 1-31, N-(5-Fluoropyrimidin-2-yl)-6-(tetrahydrofuran-3-yl)-4,5,6,8-tetrahydropyrazolo[3,4-b]thiazolo[4,5-d]azepin-2-amine] | < 100
23 | CNCCN1CCc2sc(Nc3ncc(F)cn3)nc2-c2c[nH]nc21 [Compound 1-32, N-(5-Fluoropyrimidin-2-yl)-6-(2-(methylamino)ethyl)-4,5,6,8-tetrahydropyrazolo[3,4-b]thiazolo[4,5-d]azepin-2-amine] | 1000 to 10000
24 | COCCCN1CCc2sc(Nc3ncc(F)cn3)nc2-c2c[nH]nc21 [Compound 1-33, N-(5-Fluoropyrimidin-2-yl)-6-(3-methoxypropyl)-4,5,6,8-tetrahydropyrazolo[3,4-b]thiazolo[4,5-d]azepin-2-amine] | < 100
25 | Fc1cnc(Nc2nc3c(s2)CCN(CC2CCCC2)c2n[nH]cc2-3)nc1 [Compound 1-36, 6-(Cyclopentylmethyl)-N-(5-fluoropyrimidin-2-yl)-4,5,6,8-tetrahydropyrazolo[3,4-b]thiazolo[4,5-d]azepin-2-amine] | < 100
26 | Cc1ccnc(Nc2nc3c(s2)CCN(CC2CC2)c2n[nH]cc2-3)n1 [Compound 1-37, 6-(Cyclopropylmethyl)-N-(4-methylpyrimidin-2-yl)-4,5,6,8-tetrahydropyrazolo[3,4-b]thiazolo[4,5-d]azepin-2-amine] | < 100
27 | Fc1cnc(Nc2nc3c(s2)CCN(CC2CCCCC2)c2n[nH]cc2-3)nc1 [Compound 1-38, 6-(Cyclohexylmethyl)-N-(5-fluoropyrimidin-2-yl)-4,5,6,8-tetrahydropyrazolo[3,4-b]thiazolo[4,5-d]azepin-2-amine] | < 100
